The target of one test is T1, human Nav1.1 (Homo sapiens, UniProt P35498).
T1 construct: host or cells: HEK293
The test is described as follows: Amplification of Nav1.1-derived voltage-dependent sodium current (Nav1.1 current), cell line stably expressing human Nav1.1, automated patch clamp. The format is cell-based. The following applies: 10 μmol/L compound (Test Result 5). On the procedure:
Test 1: Evaluation of the Amplification of Nav1.1-Derived Voltage-Dependent Sodium Current (Nav1.1 Current) by Using a Cell Line Stably Expressing Human Nav1.1
(1) Preparation of Test Compounds
Test compounds were prepared by dissolving in DMSO at 200 times of the concentration at evaluation, and diluting the obtained solution to twice the concentration of evaluation with an extracellular fluid (135 mmol/L NaCl, 4 mmol/L KCl, 1 mmol/L MgCl2, 5 mmol/L CaCl2, 5 mmol/L Glucose, 10 mmol/L HEPES).
(2) Induction and Measurement of Nav1.1 Current
A HEK293 cell line stably expressing human Nav1.1 (cat #CYL3009, Millipore, USA, Human Embryonic Kidney 293) was purchased, and used in the present test. Nav1.1 current was induced by stimulating Ramp wave voltage. Detection of current which accompanied with the stimulation of voltage was carried out by a patch-clamp voltage-clamp method using HTS automated patch clamp system (SynchroPatch 768PE, Nanion Technologies GmbH, Germany). Only cells with more than 500 pA of voltage-dependent sodium channel current were used for the evaluation of the activity of compounds on Nav1.1 current because there was the possibility that currents derived from endogenous voltage-dependent sodium channels accounted for large proportion in cells with less than 500 pA of voltage-dependent sodium channel current which was induced by stimulating Ramp wave voltage.
(3) Pharmacologic Effect on Nav1.1 Current
The effect of test compounds on the amplification of Nav1.1-derived voltage-dependent sodium current was evaluated by using a cell line stably expressing human Nav1.1 and HTS automated patch clamp system. In other words, test compounds were added in an extracellular fluid containing 1% DMSO, and evaluated as a change of the peak value of Nav1.1 current and the area under the curve (AUC).
(4) Method for Pharmacological Evaluation
The Nav1.1 current amplification rates of test compounds were calculated by the following formula:
Nav1.1 current amplification rate (%)=100×[the peak value of Nav1.1 current or the area under the curve after the addition of test compounds]/[the peak value of Nav1.1 current or the area under the curve before the addition of test compounds]−100
(Patch clamp records ionic current or voltage across a cell membrane.)
With `CC1CC=C(c2ccc(=O)n(CC(=O)NC3CCN(c4ccccc4)CC3)n2)CC1` (racemic) [Example 368], the “Nav1.1 current amplification rate (%)” value was determined as 18%.

`CC1CC=C(c2ccc(=O)n(CC(=O)Nc3ccnc(CO)c3)n2)CC1` (racemic) [Example 370]: the “Nav1.1 current amplification rate (%)” value turned out to be 35%.

Consider `CC1CC=C(c2ccc(=O)n(CC(=O)NC3CN(c4ccccc4)C3)n2)CC1` (racemic) [Example 372], for which the “Nav1.1 current amplification rate (%)” value was found to be 52%.

With `CC1CC=C(c2ccc(=O)n(CC(=O)Nc3ccnc(CN4CCOCC4)c3)n2)CC1` (racemic) [Example 373], the “Nav1.1 current amplification rate (%)” value is recorded as 35%.

As to `CC1CC=C(c2ccc(=O)n(CC(=O)Nc3ccc(C4=CCN(C)C4)nc3)n2)CC1` (racemic) [Example 374], the “Nav1.1 current amplification rate (%)” value is on record as 18%.

For `CC1CC=C(c2ccc(=O)n(CC(=O)Nc3ccc(-c4cnn(C)c4)nc3)n2)CC1` (racemic) [Example 375], the “Nav1.1 current amplification rate (%)” value came out at 173%.

Regarding `CC1CC=C(c2ccc(=O)n(CC(=O)Nc3ccc(CO)nc3)n2)CC1` (racemic) [Example 376], the “Nav1.1 current amplification rate (%)” value was 44%.

Regarding `CC1CC=C(c2ccc(=O)n(CC(=O)Nc3ccnc(-c4cnn(C)c4)c3)n2)CC1` (racemic) [Example 379], the “Nav1.1 current amplification rate (%)” value worked out at 147%.

On to `CC1CC=C(c2ccc(=O)n(CC(=O)N3CC=C(c4ccccc4)C3)n2)CC1` (racemic) [Example 388], for which the “Nav1.1 current amplification rate (%)” value was 37%.

In the case of `CC1CC=C(c2ccc(=O)n(CC(=O)N3CCC(Cc4ccccc4)C3)n2)CC1` (racemic) [Example 389], the “Nav1.1 current amplification rate (%)” value is 53%.

The same test, now with this note: compound 50 μmol/L; HEK293 stably expressing human Nav1.1.
In the case of `CC1CC=C(c2ccc(=O)n(CC(=O)Nc3cncc(CN(C)C)c3)n2)CC1` (racemic) [Example 365], the “Nav1.1 current amplification rate (%)” value came to 32%.

For `COC1CN(Cc2cncc(NC(=O)Cn3nc(C4=CCC(C)CC4)ccc3=O)c2)C1` (racemic) [Example 366], the “Nav1.1 current amplification rate (%)” value was 37%.

Take `CC1CC=C(c2ccc(=O)n(CC(=O)Nc3ccnc(C4=CCN(C)C4)c3)n2)CC1` (racemic) [Example 371]: the “Nav1.1 current amplification rate (%)” value worked out at 64%.

As for `CC1CC=C(c2ccc(=O)n(CC(=O)N3CC=C(c4ccccn4)C3)n2)CC1` (racemic) [Example 385], the “Nav1.1 current amplification rate (%)” value is reported as 42%.

`CC1CC=C(c2ccc(=O)n(CC(=O)N3CC=C(c4cccnc4)C3)n2)CC1` (racemic) [Example 386]: the “Nav1.1 current amplification rate (%)” value is on record as 126%.

Still in this test, the particulars now being: concentration of each compound 1 μmol/L (Test Result 6).
Consider `CC1CC=C(c2ccc(=O)n(CC(=O)Nc3cccc(-n4ccnc4)c3)n2)CC1` (racemic) [Example 363], for which the “Nav1.1 current amplification rate (%)” value amounted to 174%.

As for `Cc1cc(NC(=O)Cn2nc(C3=CCC(C)CC3)ccc2=O)cc(C)n1` (racemic) [Example 364], the “Nav1.1 current amplification rate (%)” value is on record as 25%.

As to `CC1CC=C(c2ccc(=O)n(CC(=O)Nc3cncc(C4=CCN(C)C4)c3)n2)CC1` (racemic) [Example 367], the “Nav1.1 current amplification rate (%)” value was found to be 38%.

`CC1CC=C(c2ccc(=O)n(CC(=O)Nc3ccc(-n4ccnc4)nc3)n2)CC1` (racemic) [Example 377]: the “Nav1.1 current amplification rate (%)” value was determined as 134%.

Consider `CC1CC=C(c2ccc(=O)n(CC(=O)Nc3cncc(-c4cnn(C)c4)c3)n2)CC1` (racemic) [Example 378], for which the “Nav1.1 current amplification rate (%)” value stood at 37%.

Regarding `Cc1ncc(-c2cncc(NC(=O)Cn3nc(C4=CCC(C)CC4)ccc3=O)c2)o1` (racemic) [Example 380], the “Nav1.1 current amplification rate (%)” value is 82%.

As for `CC1CC=C(c2ccc(=O)n(CC(=O)Nc3cncc(C4=COCCC4)c3)n2)CC1` (racemic) [Example 382], the “Nav1.1 current amplification rate (%)” value is 13%.

For `CC1CC=C(c2ccc(=O)n(CC(=O)N3CCCN(c4cccnc4)CC3)n2)CC1` (racemic) [Example 384], the “Nav1.1 current amplification rate (%)” value turned out to be 15%.

Take `CC1CC=C(c2ccc(=O)n(CC(=O)N3CC=C(c4ccncc4)C3)n2)CC1` (racemic) [Example 387]: the “Nav1.1 current amplification rate (%)” value came out at 19%.

The values are drawn from US20220347175A1, “PYRIDAZINONE DERIVATIVE” (Sumitomo Dainippon Pharma Co., Ltd., priority 2018, published 2022).
